What all share (test): Antibiotic activity (MIC), Table 1
Assay type in all cases: cell-based

In test [1] the test system is S. aureus 209P JC-1.
Test [2] concerns S. faecalis Imanari.
In test [3] the test system is B. subtilis ATCC 6633.
Test [4] relates to E. coli NIHJ JC-2.
The subject of test [5] is K. pneumoniae PCI 602.
Test [6] has as its system E. cloacae IID 977.
Test [7] concerns S. marcescens NHL.
The subject of test [8] is P. inconstans 93.
For test [9], the system named is P. vulgaris IID 874.
The subject of test [10] is P. aeruginosa NCTC 10490.
In test [11] the test system is P. cepacia 11D 1340.
For test [12], the system named is P. maltophilia IID 1275.
Test [13] has as its system P. putida IID 5121.
The subject of test [14] is E. coli ML 1410.
The test system of test [15] is P. aeruginosa TI 13 (APH(3')-I).
In test [16] the test system is P. aerugionosa TK-157 (APH(3')-II).
Test [17] concerns K. pneumoniae 4687 (AAD(2")).
For test [18], the system named is P. aeruginosa GN315 (AAC(6')-IV).
For test [19], the system named is E. coli JR 88 (AAC(3)-I).
Test [20] concerns P. aeruginosa 99 (AAC(3)-I).
Test [21] concerns E. coli R176 (AAC(3)-II).
Test [22] deals with P. aeruginosa RST-1 (AAC(3)-III).
In test [23] the test system is P. inconstans GN1554 (AAC(2')).
For test [24], the system named is E. coli ML 1410 R102 (AAD(2")).
For test [25], the system named is E. coli ML 1410 R82 (AAD(3")). To be noted: Escherichia coli.
Where [26] appears, read: Bacillus subtilis, ATCC6633, B. subtilis ATCC 6633, read-out: MIC.
The mark [27] stands for this setting: Burkholderia cepacia, 11D1340, read-out: MIC.
[28] abbreviates: Pseudomonas aeruginosa, GN315, P. aeruginosa GN315 (AAC(6')-IV), read-out: MIC.
[29] abbreviates: Escherichia coli, read-out: MIC.
Where [30] appears, read: Pseudomonas aeruginosa, read-out: MIC.

≈ marks a conversion by molar mass, not a printed value. Where two headings read alike, the source gives them in different places. Bounds are passed on as bounds.

Regarding `CNC1C(O)CC(N)C(OC2OC(C(C)N)CCC2NC(=O)C[C@@H](N)CCCN)C1O` (stereo partly drawn) [2'-N-β-Lysyl 5-de-O-Me KA-6606II, 2'-N-(L-β-lysyl)-5-de-O-methyl-KA-6606II], the minimal inhibitory concentration (MIC) in test [1] is 0.78 µg/mL (≈ 1.75 µM); in test [2], 3.13 µg/mL (≈ 7.01 µM); in [3] (B. subtilis ATCC 6633), 3.13 µg/mL (≈ 7.01 µM); in [4] (E. coli NIHJ JC-2) it was 3.13 µg/mL (≈ 7.01 µM); in [5] (K. pneumoniae PCI 602), 0.78 µg/mL (≈ 1.75 µM); in [6] (E. cloacae IID 977), 12.5 µg/mL (≈ 28 µM). The MIC was 3.13 µg/mL (≈ 7.01 µM) in [7]; 1.56 µg/mL (≈ 3.49 µM) in [8] (P. inconstans 93); 25 µg/mL (≈ 56 µM) in test [9] (P. vulgaris IID 874); 25 µg/mL (≈ 56 µM) in test [10] (P. aeruginosa NCTC 10490); above 100 µg/mL in test [11]; 1.56 µg/mL (≈ 3.49 µM) in [12] (P. maltophilia IID 1275). The MIC in test [13] (P. putida IID 5121) was 25 µg/mL (≈ 56 µM); in [14] (E. coli ML 1410), 6.25 µg/mL (≈ 14 µM); in test [15] it was 50 µg/mL (≈ 112 µM); in test [16], 50 µg/mL (≈ 112 µM); in [17] it was 12.5 µg/mL (≈ 28 µM); in test [18] (P. aeruginosa GN315 (AAC(6')-IV)), above 100 µg/mL. Also, the minimal inhibitory concentration (MIC) in test [19] is 12.5 µg/mL (≈ 28 µM); in test [20], above 100 µg/mL; in test [21], 6.25 µg/mL (≈ 14 µM); in [22], 100 µg/mL (≈ 224 µM); in test [23] (P. inconstans GN1554 (AAC(2'))) it was 1.56 µg/mL (≈ 3.49 µM).
Turning to `CNC1C(OC)CC(N)C(OC2OC(C(C)N)CCC2N)C1O` (stereo not drawn) [KA-6606VIII, reference compound], the minimal inhibitory concentration (MIC) in [1] came to 0.78 µg/mL (≈ 2.35 µM); in test [2], 3.13 µg/mL (≈ 9.42 µM); in [3] (setting [26]), 3.13 µg/mL (≈ 9.42 µM); in test [4] (E. coli NIHJ JC-2) it was 3.13 µg/mL (≈ 9.42 µM); in test [5] (K. pneumoniae PCI 602) it was 0.78 µg/mL (≈ 2.35 µM); in [6] (E. cloacae IID 977), 12.5 µg/mL (≈ 37.6 µM). In addition, the minimal inhibitory concentration (MIC) in test [7] is 1.56 µg/mL (≈ 4.69 µM); in test [8] (P. inconstans 93), 1.56 µg/mL (≈ 4.69 µM); in [9] (P. vulgaris IID 874), 12.5 µg/mL (≈ 37.6 µM); in [10] (P. aeruginosa NCTC 10490), 12.5 µg/mL (≈ 37.6 µM); in test [11] (setting [27]), above 100 µg/mL; in test [12] (P. maltophilia IID 1275), 1.56 µg/mL (≈ 4.69 µM). Moreover, the MIC came out at 12.5 µg/mL (≈ 37.6 µM) in test [13] (P. putida IID 5121); 3.13 µg/mL (≈ 9.42 µM) in [14] (E. coli ML 1410); 25 µg/mL (≈ 75.2 µM) in [15]; 25 µg/mL (≈ 75.2 µM) in [16]; 0.78 µg/mL (≈ 2.35 µM) in [24]; 6.25 µg/mL (≈ 18.8 µM) in [17]. Besides, the minimum inhibitory concentration (MIC) in test [18] (setting [28]) is 100 µg/mL (≈ 301 µM); in test [19] (setting [29]), 50 µg/mL (≈ 150 µM); in test [20] (setting [30]), above 100 µg/mL; in test [21], 3.13 µg/mL (≈ 9.42 µM); in test [22] (setting [30]), 100 µg/mL (≈ 301 µM); in test [23] (P. inconstans GN1554 (AAC(2'))), 1.56 µg/mL (≈ 4.69 µM).
In the case of `CNC1C(OC)CC(N)C(OC2OC(C(C)N)CCC2NC(=O)C[C@@H](N)CCCN)C1O` (stereo partly drawn) [2'-N-β-Lysyl KA-6606VIII, 2'-N-(L-β-lysyl)-KA-6606VIII], the MIC in test [1] (Staphylococcus aureus, 209P, read-out: MIC) stood at 0.39 µg/mL (≈ 0.847 µM); in [2] (Enterococcus faecalis, read-out: MIC), 1.56 µg/mL (≈ 3.39 µM); in test [3] (setting [26]) it was 3.13 µg/mL (≈ 6.8 µM); in test [4] (Escherichia coli, NIHJJC2, E. coli NIHJ JC-2, read-out: MIC), 1.56 µg/mL (≈ 3.39 µM); in [5] (Klebsiella pneumoniae, PCI602, K. pneumoniae PCI 602, read-out: MIC) it was 0.78 µg/mL (≈ 1.69 µM); in test [6] (Enterobacter cloacae, IID977, E. cloacae IID 977, read-out: MIC) it was 3.13 µg/mL (≈ 6.8 µM). The minimum inhibitory concentration (MIC) was 0.2 µg/mL (≈ 0.434 µM) in test [7] (Serratia marcescens, read-out: MIC); 0.39 µg/mL (≈ 0.847 µM) in test [8] (Providencia alcalifaciens, 93, P. inconstans 93, read-out: MIC); 12.5 µg/mL (≈ 27.1 µM) in test [9] (Proteus vulgaris, IID874, P. vulgaris IID 874, read-out: MIC); 6.25 µg/mL (≈ 13.6 µM) in test [10] (Pseudomonas aeruginosa, NCTC10490, P. aeruginosa NCTC 10490, read-out: MIC); above 100 µg/mL in test [11] (setting [27]); 1.56 µg/mL (≈ 3.39 µM) in test [12] (Stenotrophomonas maltophilia, IID1275, P. maltophilia IID 1275, read-out: MIC). Further, the minimum inhibitory concentration (MIC) in test [13] (Pseudomonas putida, IID5121, P. putida IID 5121, read-out: MIC) worked out at 3.13 µg/mL (≈ 6.8 µM); in [14] (Escherichia coli, ML1410, E. coli ML 1410, read-out: MIC) it was 0.78 µg/mL (≈ 1.69 µM); in [15] (Pseudomonas aeruginosa) it was 25 µg/mL (≈ 54.3 µM); in test [16] (read-out: MIC), 25 µg/mL (≈ 54.3 µM); in test [24] (Escherichia coli) it was 0.39 µg/mL (≈ 0.847 µM); in test [17] (Klebsiella pneumoniae, read-out: MIC), 0.78 µg/mL (≈ 1.69 µM). The MIC in test [25] came out at 0.39 µg/mL (≈ 0.847 µM); in test [18] (setting [28]), 25 µg/mL (≈ 54.3 µM); in test [19] (setting [29]), 0.78 µg/mL (≈ 1.69 µM); in test [20] (setting [30]), 50 µg/mL (≈ 109 µM); in [21] (setting [29]) it was 0.78 µg/mL (≈ 1.69 µM); in [22] (setting [30]), 100 µg/mL (≈ 217 µM). Further, the MIC in test [23] (Providencia alcalifaciens, GN1554, P. inconstans GN1554 (AAC(2')), read-out: MIC) amounted to 0.2 µg/mL (≈ 0.434 µM).

Source of the values: US4487924A, “2'-N-β-Lysyl) aminoglycosides” (Kowa Company, Ltd., priority 1982, dated 1984).
